The subject of one test is HDL cholesterol. Nature of the test: In vivo activity: oral action on lipoproteins and triglycerides in hamsters (HDL rise). Further details: species or system Syrian golden hamsters. Conditions: dose 2 × 3 mg/kg, up to 24 hours. As to the method: In experiments to determine the oral action on lipoproteins and triglycerides, test substance dissolved in DMSO and 0.5% Tylose suspended by means of a stomach tube are administered orally to Syrian golden hamsters from in-house breeding. To determine the CETP activity, blood (about 250 μl) is taken by retro-orbital puncture before the start of the experiment. The test substances are then administered orally by means of a stomach tube. The control animals receive identical volumes of solvents without test substance. The feed is then withdrawn from the animals and blood is taken at various times--up to 24 hours after substance administration--by puncture of the retro-orbital venous plexus. Clotting is ended by incubation at 4° C. overnight, then centrifugation at 6000×g is carried out for 10 minutes. In the serum thus obtained, the content of cholesterol and triglycerides is determined with the aid of modified commercially available enzyme tests (cholesterol enzymatic 14366 Merck, triglycerides 14364 Merck). Serum is suitably diluted using physiological saline solution.
100 μl of serum dilution are mixed with 100 μl of […] in 96-hole plates and incubated at room temperature for 10 minutes. The optical density is then determined at a wavelength of 492 nm using an automatic plate-reading apparatus. The triglyceride or cholesterol concentration contained in the samples is determined with the aid of a standard curve measured in parallel.
The determination of the content of HDL cholesterol is carried out according to the manufacturer's instructions after precipitation of the ApoB-containing lipoproteins by means of a reagent mixture (Sigma 352-4 HDL cholesterol reagent).

For test [1], the target named is T1, cholesterol ester transfer protein (CETP) (Homo sapiens, UniProt P11597).
T1 construct: CETP is obtained from human plasma in partially purified form; from tissue; host or cells: human plasma
T1 sequence (P11597 18-493): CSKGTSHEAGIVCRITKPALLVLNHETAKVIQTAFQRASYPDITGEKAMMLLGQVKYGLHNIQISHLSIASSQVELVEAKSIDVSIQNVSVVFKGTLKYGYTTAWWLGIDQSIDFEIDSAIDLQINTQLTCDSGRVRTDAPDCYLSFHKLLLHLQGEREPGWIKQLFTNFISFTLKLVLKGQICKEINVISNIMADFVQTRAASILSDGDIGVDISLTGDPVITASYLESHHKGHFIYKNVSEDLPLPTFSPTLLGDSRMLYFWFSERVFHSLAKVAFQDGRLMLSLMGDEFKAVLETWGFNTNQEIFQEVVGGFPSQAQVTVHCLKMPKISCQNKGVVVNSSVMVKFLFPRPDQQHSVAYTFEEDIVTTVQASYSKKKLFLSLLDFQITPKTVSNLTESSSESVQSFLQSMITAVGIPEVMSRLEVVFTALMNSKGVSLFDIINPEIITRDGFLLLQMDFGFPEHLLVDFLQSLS
The test can be described thus: CETP inhibition test: transfer of 3H-cholesterol ester from human HD lipoproteins to biotinylated LD lipoproteins (SPA). Format: biochemical. Particulars: human plasma CETP, 18 h, 37° C. The protocol:
CETP is obtained from human plasma in partially purified form by differential centrifugation and column chromatography and used for the test. To this end, human plasma is adjusted to a density of 1.21 g per ml using NaBr and centrifuged at 4° C. for 18 h at 50,000 rpm. The bottom fraction (d>1.21 g/ml) is applied to a Sephadex®phenyl-sepharose 4B (Pharmacia) column, washed with 0.15 M NaCl/0.001 M trisHCl pH 7.4 and then eluted with distilled water. The CETP-active fractions are pooled, dialysed against 50 mM Na acetate pH 4.5 and applied to a CM-Sepharose® (Pharmacia) column. The column is then eluted using a linear gradient (0-1 M NaCl). The pooled CETP fractions are dialysed against 10 mM trisHCl pH 7.4 and then further purified by chromatography on a Mono Q® column (Pharmacia).
50 ml of fresh human EDTA plasma are adjusted to a density of 1.12 using NaBr and centrifuged at 50,000 rpm for 18 h at 4° C. in a Ty 65 rotor. The upper phase is used to obtain cold LDL. The lower phase is dialysed against 3×4 l of PDB buffer (10 mM tris/HCl pH 7.4, […] NaCl, 1 mM EDTA, 0.02% NaN3). 20 μl of ^3 H-cholesterol (Dupont NET-725; 1 μC/μl dissolved in ethanol) are then added per 10 ml of retentate volume and the mixture is incubated under N2 at 37° C. for 72 h.
The mixture is then adjusted to the density 1.21 using NaBr and centrifuged at 20° C. for 18 h at 50,000 rpm in the Ty 65 rotor. The upper phase is recovered and the lipoprotein fractions are purified by gradient centrifugation. To this end, the isolated, labelled lipoprotein fraction is adjusted to a density of 1.26 using NaBr. Each 4 ml of this solution are covered with a layer of 4 ml of a solution of density 1.21 and 4.5 ml of a solution of 1.063 (density solutions from PDB buffer and NaBr) in centrifuge tubes (SW 40 rotor) and then centrifuged in the SW 40 rotor for 24 h at 38,000 rpm and 20° C. The intermediate layer lying between the densities 1.063 and 1.21 and containing the labelled HDL is dialysed at 4° C. against 3×100 volumes of PDB buffer.
The retentate contains radiolabelled ^3 H-CE-HDL which, adjusted to about 5×10^6 cmp per ml, is used for the test.
To test the CETP activity, the transfer of ^3 H-cholesterol ester from human HD lipoproteins to biotinylated LD lipoproteins is measured.
The reaction is ended by addition of streptavidin-SPA®beads (Amersham) and the transferred radioactivity is determined directly in a liquid scintillation counter.
In the test mixture, 10 μl of HDL-^3 H-cholesterol ester (~50,000 cpm) are incubated at 37° C. for 18 h with 10 μl of biotin-LDL (Amersham) in 50 mM Hepes/0.15 M NaCl/0.1% bovine serum albumin/0.05% NaN3 pH 7.4 with 10 μl of CETP (1 mg/ml) and 3 μl of solution of the substance to be tested (dissolved in 10% DMSO/1% RSA). 200 μl of the SPA-streptavidin bead solution (TRKQ 7005) are then added, the mixture is incubated further for 1 h with shaking and then measured in the scintillation counter. As controls, corresponding incubations with 10 μl of buffer, 10 μl of CETP at 4° C. and 10 μl of CETP at 37° C. are used.
The activity transferred into the control mixtures with CETP at 37° C. is rated as 100% transfer. The substance concentration at which this transfer is reduced by half is indicated as the IC50 value.

For test [2], the system named is lipoproteins and triglycerides. The test can be described thus: In vivo activity in transgenic hCETP mice (lipoproteins and triglycerides). Particulars: 400 ppm in the feed, one week. The protocol:
Transgenic mice from in-house breeding (Dinchuck, Hart, Gonzalez, Karmann, Schmidt, Wirak; BBA (1995), 1295, 301) were administered the substances to be tested in the feed. Before the start of the experiment, blood was taken retro-orbitally from the mice in order to determine cholesterol and triglycerides in the serum. The serum was obtained as described above for hamsters by incubation at 4° C. overnight and subsequent centrifugation at 6000×g. After one week, blood was again taken from the mice in order to determine lipoproteins and triglycerides. The change in the parameters measured is expressed as a percentage change compared with the starting value.

As to `CC1Cc2nc(C3CCCC3)c(C(F)c3ccc(C(F)(F)F)cc3)c(-c3ccc(F)cc3)c2C(O)C1` (single isomer, unassigned) [Example 76], in the test with HDL cholesterol, the “% HDL rise” value was “+15.81%”. This compound registered a half-maximal inhibitory concentration (IC50) in test [1] of 6 nM. In test [2], the “HDL (percentage change compared with the starting value)” value is recorded as “+31.25%”, the “LDL (percentage change compared with the starting value)” value is -15.3% and the “Triglycerides (percentage change compared with the starting value)” value is given as -11.7%.

(Values after US6207671A, “Cycloalkano-pyridines” (Bayer Aktiengesellschaft, priority 1996, dated 2001).)
